Measured values taken from PubChem BioAssay AID651859 (Sanford-Burnham Center for Chemical Genomics, 2012).
Active and inactive are the calls of the source. The rule behind the calls is not given here.

System: cell viability, luminescent cytotoxicity assay
Assay: cell-killing effect of antagonist analogs – luminescence, set 2, cytotoxicity control for Gli-SUFU antagonist project, SAR follow-up (AID 651859)

## O=C(Nc1cc(N2CCCCC2)ncn1)c1cccc2ccccc12
  IC50: > 11.7 µM (inactive)

## CC(C)Nc1cc(NC(=O)c2ccccc2)ncn1
  IC50: > 11.7 µM (inactive)

## N#Cc1ccc(C(=O)Nc2cc(N3CCCCC3)ncn2)cc1
  IC50: > 11.7 µM (inactive)

## CCCCN(C)c1cc(NC(=O)c2ccccc2)ncn1
  IC50: > 11.7 µM (inactive)

## CC(C)(C)OC(=O)N1CCN(c2cc(NC(=O)c3ccccc3)ncn2)CC1
  IC50: > 11.7 µM (inactive)

## N#Cc1cccc(C(=O)Nc2cc(N3CCCCC3)ncn2)c1
  IC50: > 11.7 µM (inactive)

## O=C(Nc1cc(N2CCCCC2)ncn1)c1ccc(Cl)cc1
  IC50: > 11.7 µM (inactive)

## Cc1ccc(C(=O)Nc2cc(N3CCCCC3)ncn2)cc1
  IC50: > 11.7 µM (inactive)

## CCOc1ccc(S(=O)(=O)NCc2ccncc2)cc1NC(=O)c1ccccc1
  IC50: > 11.7 µM (inactive)

## O=C(Nc1cc(N2CCCCC2)ncn1)c1ccccc1
  IC50: > 11.7 µM (inactive)

## O=C(Nc1cc(NCC2CCCO2)ncn1)c1ccccc1 (stereo not drawn)
  IC50: > 11.7 µM (inactive)

## O=C(Nc1cc(N2CCNCC2)ncn1)c1ccccc1
  IC50: > 11.7 µM (inactive)

## CCC(C)Nc1cc(NC(=O)c2ccccc2)ncn1 (stereo not drawn)
  IC50: > 11.7 µM (inactive)

## O=C(Nc1cc(N2CCOCC2)ncn1)c1ccccc1
  IC50: > 11.7 µM (inactive)

## COc1ccccc1C(=O)Nc1cc(N2CCCCC2)ncn1
  IC50: > 11.7 µM (inactive)

## O=C(Nc1cc(N2CCSCC2)ncn1)c1ccccc1
  IC50: > 11.7 µM (inactive)

## CCOc1ccc(-c2nc(CSCC(=O)NC3CC3)c(C)o2)cc1
  IC50: > 11.7 µM (inactive)

## CCCCNc1cc(NC(=O)c2ccccc2)ncn1
  IC50: > 11.7 µM (inactive)

## CC1CCN(c2cc(NC(=O)c3ccccc3)ncn2)CC1
  IC50: > 11.7 µM (inactive)

## O=C(Nc1cc(N2CCCCC2)ncn1)c1cc2ccccc2s1
  IC50: > 11.7 µM (inactive)

## CC1CCCCN1c1cc(NC(=O)c2ccccc2)ncn1 (stereo not drawn)
  IC50: > 11.7 µM (inactive)

## O=C(Nc1cc(N2CCCCC2)ncn1)c1cccs1
  IC50: > 11.7 µM (inactive)

## CC(C)(C)Nc1cc(NC(=O)c2ccccc2)ncn1
  IC50: > 11.7 µM (inactive)

## O=C(Nc1cc(N2CCCCC2)ncn1)c1ccsc1
  IC50: > 11.7 µM (inactive)

## O=C(Nc1cc(N2CCCCC2)ncn1)c1ccccc1C(F)(F)F
  IC50: > 11.7 µM (inactive)

## O=C(Nc1cc(N2CCCCC2)ncn1)c1ccc2ccccc2c1
  IC50: > 11.7 µM (inactive)

## O=C(Nc1cc(N2CCCCCC2)ncn1)c1ccccc1
  IC50: > 11.7 µM (inactive)

## O=C(Nc1cc(N2CCCCC2)ncn1)c1ccc(C(F)(F)F)cc1
  IC50: > 11.7 µM (inactive)

## COc1cccc(C(=O)Nc2cc(N3CCCCC3)ncn2)c1
  IC50: > 11.7 µM (inactive)

## CC(C)CNc1cc(NC(=O)c2ccccc2)ncn1
  IC50: > 11.7 µM (inactive)

## O=C(Nc1cc(N2CCCCC2)ncn1)c1ccccc1Cl
  IC50: > 11.7 µM (inactive)

## O=C(Nc1cc(N2CCCCC2)ncn1)c1ccco1
  IC50: > 11.7 µM (inactive)

## CN1CCN(c2cc(NC(=O)c3ccccc3)ncn2)CC1
  IC50: > 11.7 µM (inactive)
